Reference: patent publication US11827628B2, “Compositions and methods for inhibition of the JAK pathway” (Rigel Pharmaceuticals, Inc., priority 2005, dated 2023)
pIC50: −log10 of the molar value. Structures can show the parent of a compound that is named as a salt. Where two headings read alike, the source gives them in different places.

Experiments:
[1] = test system: IL-4 stimulated expression of CD23 in human Ramos B cells (JAK-1 and JAK-3); test: Assay for Ramos B-Cell Line Stimulated with IL-4 (CD23 upregulation, FACS); format: cell-based; conditions: read-out: IC50, Example 41
Method in brief: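 Human Ramos B cells (5×10^4 per point, RPMI 5% serum) pre-incubated 1 h at 37 °C with compound or DMSO, then stimulated with IL-4 at 50 units/mL final for 20-24 h. CD23 upregulation measured by anti-CD23-PE staining and flow cytometry; IC50 derived.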

Primary human T-cells = test: Primary Human T-Cell Proliferation Assay Stimulated with IL-2 (CellTiter-Glo); format: cell-based; conditions: read-out: IC50, Example 42
Method in brief: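 IC50 derived from CellTiter-Glo ATP signal after 72 hours of IL-2-driven proliferation at 37° C. Cells: primary human T-cells from blood, stimulated beforehand 3-4 days on anti-CD3/anti-CD28 with IL-2, then rested from IL-2 before compound exposure in duplicate; IL-2-free wells served as unstimulated control.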

[2] = Ramos B-cell line stimulated with IL-4, CD23 expression by FACS
[3] = primary human T-cell proliferation stimulated with IL-2
[4] = Homo sapiens, Ramos, Ramos B-cell line stimulated with IL-4, CD23 expression by FACS
[5] = Homo sapiens, T-cell, primary human T-cell proliferation stimulated with IL-2
[6] = Ramos B cells stimulated with IL-4, CD23 expression by FACS
[7] = primary human T-cells stimulated with IL-2, proliferation

Compound	pIC50 [1, 4]	pIC50 (Primary human T-cells; [5])	pIC50 [1, 6]	pIC50 (Primary human T-cells; [7])	further results
NS(=O)(=O)c1cccc(Nc2ncc(F)c(Nc3ccc(CNC(=O)C4CC4)cc3)n2)c1 [III-42, N2-(3-aminosulfonyl)phenyl-N4-(4-cyclopropylcarbonylaminomethyl)phenyl-5-fluoro-2,4-pyrimidinediamine]	–	–	–	–	pIC50 [1, 2]: 6.53; pIC50 (Primary human T-cells; [3]): 6.19
Cc1ccc(Nc2ncc(F)c(Nc3ccc(CNC(=O)C4CC4)cc3)n2)cc1S(N)(=O)=O [III-43, N2-(3-aminosulfonyl-4-methyl)phenyl-N4-(4-cyclopropylcarbonylaminomethyl)phenyl-5-fluoro-2,4-pyrimidinediamine]	–	–	–	–	pIC50 [1, 2]: 6.57; pIC50 (Primary human T-cells; [3]): 6.05
C=CC(=O)NCc1ccc(Nc2nc(Nc3cccc(S(N)(=O)=O)c3)ncc2F)cc1 [III-45, N4-(4-Acrylamidomethylphenyl)-N2-(3-aminosulfonylphenyl)-5-fluoro-2,4-pyrimidinediamine]	6.53	6.42	–	–	–
C=CC(=O)NCc1ccc(Nc2nc(Nc3ccc(C)c(S(N)(=O)=O)c3)ncc2F)cc1 [III-46, N4-(4-Acrylamidomethylphenyl)-N2-(3-aminosulfonyl-4-methylphenyl)-5-fluoro-2,4-pyrimidinediamine]	6.67	5.98	–	–	–
Cc1ccc(Nc2ncc(F)c(Nc3ccc(CCC(N)=O)cc3)n2)cc1S(N)(=O)=O [III-47, N4-[4-(2-Aminocarboxylethylene)phenyl]-5-fluoro-N2-(4-methyl-3-aminosulfonylphenyl)-2,4-pyrimidinediamine]	–	–	–	–	pIC50 [1, 2]: 6.68; pIC50 (Primary human T-cells; [3]): 6.44
NC(=O)CCc1ccc(Nc2nc(Nc3cccc(S(N)(=O)=O)c3)ncc2F)cc1 [III-48, N4-[4-(2-Aminocarboxylethylene)phenyl]-N2-(3-aminosulfonylphenyl)-5-fluoro-2,4-pyrimidinediamine]	–	–	–	–	pIC50 [1, 2]: 6.69; pIC50 (Primary human T-cells; [3]): 6.66
Cn1ccc(NC(=O)Cc2ccc(Nc3nc(Nc4cccc(S(N)(=O)=O)c4)ncc3F)cc2)n1 [III-50, N2-(3-Aminosulfonylphenyl)-5-fluoro-N-4-[4(1-methylpyrazolyl-3-aminocarbonylmethylene)phenyl]-2,4-pyrimidinediamine]	–	–	–	–	pIC50 [1, 2]: 6.51; pIC50 (Primary human T-cells; [3]): 5.71
CCn1nccc1NC(=O)Cc1ccc(Nc2nc(Nc3ccc(C)c(S(N)(=O)=O)c3)ncc2F)cc1 [III-52, N2-(3-Aminosulfonyl-4-methylphenyl)-5-N4-[(1-ethylpyrazolyl-5-aminocarbonylmethylene)phenyl]-5-fluoro-2,4-pyrimidinediamine]	–	–	–	–	pIC50 [1, 2]: 6.74; pIC50 (Primary human T-cells; [3]): 5.92
NC(=O)OCCc1ccc(Nc2nc(Nc3ccc(Cl)c(S(N)(=O)=O)c3)ncc2F)cc1 [III-55, N4-{4-[2-(Aminocarbonyloxy)ethyl]phenyl}-N2-(3-aminosulfonyl-4-chlorophenyl)-5-fluoro-2,4-pyrimidinediamine]	6.84	6.01	–	–	–
Cc1ccc(Nc2ncc(F)c(Nc3ccc(CCOC(=O)N(C)C)cc3)n2)cc1S(N)(=O)=O [III-56, N2-(3-Aminosulfonyl-4-methylphenyl)-N4-{4-[2-(dimethylaminocarbonyloxy)ethyl]phenyl}-5-fluoro-2,4-pyrimidinediamine]	6.71	6.30	–	–	–
CN(C)C(=O)OCCc1ccc(Nc2nc(Nc3ccc(Cl)c(S(N)(=O)=O)c3)ncc2F)cc1 [III-58, N2-(3-Aminosulfonyl-4-chlorophenyl)-N4-{4-[2-(dimethylaminocarbonyloxy)ethyl]phenyl}-5-fluoro-2,4-pyrimidinediamine]	6.80	5.90	–	–	–
CNC(=O)OCCc1ccc(Nc2nc(Nc3ccc(C)c(S(N)(=O)=O)c3)ncc2F)cc1 [III-59, N2-(3-Aminosulfonyl-4-methylphenyl)-5-fluoro-N4-{4-[2-(methylaminocarbonyloxy)ethyl]phenyl}-2,4-pyrimidinediamine]	6.82	6.34	–	–	–
CNC(=O)OCCc1ccc(Nc2nc(Nc3ccc(Cl)c(S(N)(=O)=O)c3)ncc2F)cc1 [III-61, N2-(3-Aminosulfonyl-4-chlorophenyl)-5-fluoro-N4-{4-[2-(methylaminocarbonyloxy)ethyl]phenyl}-2,4-pyrimidinediamine]	6.59	5.97	–	–	–
NS(=O)(=O)c1cccc(Nc2ncc(F)c(Nc3ccc(Cc4ccccc4)cc3)n2)c1 [III-62, N2-(3-Aminosulfonylphenyl)-N4-(4-benzylphenyl)-5-fluoro-2,4-pyrimidinediamine]	6.77	6.16	–	–	–
NS(=O)(=O)c1cccc(Nc2ncc(F)c(Nc3ccc(Cc4ccncc4)cc3)n2)c1 [III-73, N2-(3-Aminosulfonylphenyl)-5-fluoro-N4-[4-(4-pyridylmethyl)phenyl]-2,4-pyrimidinediamine Hydrochloride Salt]	–	–	–	–	pIC50 ([1]; Ramos B-cell line stimulated with IL-4, CD23 expression by FACS, Hydrochloride Salt): 6.88; pIC50 (Primary human T-cells; primary human T-cell proliferation stimulated with IL-2, Hydrochloride Salt): 6.36
NS(=O)(=O)c1ccc(Nc2ncc(F)c(NCCc3ccc(-c4ccncc4)cc3)n2)cc1 [III-79, N2-(4-Aminosulfonylphenyl)-5-fluoro-N4-[4-(4-pyridinyl)phenethyl]-2,4-pyrimidinediamine]	6.77	6.01	–	–	–
NS(=O)(=O)c1cccc(Nc2ncc(F)c(Nc3ccc(Cc4cc[n+]([O-])cc4)cc3)n2)c1 [III-80, N2-(3-Aminosulfonylphenyl)-5-fluoro-N4-[4-(1-oxido-4-pyridylmethyl)phenyl]-2,4-pyrimidinediamine]	5.50	6.07	–	–	–
CCN(CC)CCNS(=O)(=O)c1ccc(Nc2ncc(F)c(Nc3ccc(Cn4ccnc4)cc3)n2)cc1 [III-84, N2-[4-(2-N,N-Diethylaminoethyl)aminosulfonylphenyl)-5-fluoro-N4-[4-(1-imidazolylmethyl)phenyl]-2,4-pyrimidinediamine]	–	–	–	–	pIC50 [1, 2]: 6.35; pIC50 (Primary human T-cells; [3]): 5.72
Cc1ccc(Nc2ncc(F)c(Nc3ccc(Cn4ccnc4C)cc3)n2)cc1S(N)(=O)=O [III-91, N2-(3-Aminosulfonyl-4-methylphenyl)-5-fluoro-N4-[4-(2-methyl-1-imidazolylmethyl)phenyl]-2,4-pyrimidinediamine]	–	–	6.85	6.33	–
Cc1nccn1Cc1ccc(Nc2nc(Nc3ccc(S(N)(=O)=O)cc3)ncc2F)cc1 [III-92, N2-(4-Aminosulfonylphenyl)-5-fluoro-N4-[4-(2-methyl-1-imidazolylmethyl)phenyl]-2,4-pyrimidinediamine]	–	–	6.49	5.72	–
CNS(=O)(=O)c1cc(Nc2ncc(F)c(Nc3ccc(Cn4ccnc4C)cc3)n2)ccc1C [III-93, 5-Fluoro-N2-[3-(N-methylaminosulfony)-4-methylphenyl]-N4-[4-(2-methyl-1-imidazolylmethyl)phenyl]-2,4-pyrimidinediamine]	–	–	6.76	6.09	–
Cc1nccn1Cc1ccc(Nc2nc(Nc3cccc(S(N)(=O)=O)c3)ncc2F)cc1 [III-94, N2-(3-Aminosulfonylphenyl)-5-fluoro-N4-[4-(2-methyl-1-imidazolylmethyl)phenyl]-2,4-pyrimidinediamine]	–	–	6.79	6.15	–
NS(=O)(=O)c1ccc(Nc2ncc(F)c(Nc3ccc(Cn4ccnn4)cc3)n2)cc1 [III-96]	–	–	5.48	5.66	–
CNS(=O)(=O)c1cc(Nc2ncc(F)c(Nc3ccc(Cn4ccnn4)cc3)n2)ccc1C [III-98, 5-Fluoro-N2-[3-(N-methylaminosulfony)-4-methylphenyl]-N4-{4-[1-(1,2,3-thazolyl)methyl]phenyl}-2,4-pyrimidinediamine]	–	–	6.93	6.34	–
NS(=O)(=O)c1ccc(Nc2ncc(F)c(Nc3ccc(Cn4cncn4)cc3)n2)cc1 [III-99, N2-(4-Aminosulfonylphenyl)-5-fluoro-N4-{4-[1-(1,2,4-thazolyl)methyl]phenyl}-2,4-pyrimidinediamine]	–	–	5.99	5.66	–
Cc1ccc(Nc2ncc(F)c(Nc3ccc(Cn4cncn4)cc3)n2)cc1S(N)(=O)=O [III-101, N2-(3-Aminosulfonyl-4-methylphenyl)-5-fluoro-N4-{4-[1-(1,2,4-thazolyl)methyl]phenyl}-2,4-pyrimidinediamine]	–	–	6.62	6.35	–
CNS(=O)(=O)c1cc(Nc2ncc(F)c(Nc3ccc(Cn4cncn4)cc3)n2)ccc1C [III-102, 5-Fluoro-N2-[3-(N-methylaminosulfony)-4-methylphenyl]-N4-{4-[1-(1,2,4-thazolyl)methyl]phenyl}-2,4-pyrimidinediamine]	–	–	6.52	6.31	–
CCNC(=O)NCc1cccc(Nc2nc(Nc3ccc(S(N)(=O)=O)cc3)ncc2F)c1 [III-116, N2-(4-aminosulfonyl)phenyl-N4-(3-ethylaminocarbonylaminomethyl)phenyl-5-fluoro-2,4-pyrimidinediamine]	–	–	6.71	5.40	–
CCNC(=O)NCc1cccc(Nc2nc(Nc3ccc(C)c(S(N)(=O)=O)c3)ncc2F)c1 [III-118, N2-(3-aminosulfonyl-4-methyl)phenyl-N4-(3-ethylaminocarbonylaminomethyl)phenyl-5-fluoro-2,4-pyrimidinediamine]	–	–	6.20	5.64	–
CCNC(=O)NCc1ccc(Nc2nc(Nc3cccc(S(N)(=O)=O)c3)ncc2F)cc1 [III-120, N2-(3-Aminosulfonylphenyl]-N4-(4-ethylaminocarbonylaminomethylphenyl)-5-fluoro-2,4-pyrimidinediamine]	–	–	–	–	pIC50 ([1]; Homo sapiens, Ramos, Ramos B cells stimulated with IL-4, CD23 expression by FACS): 6.18; pIC50 (Primary human T-cells; Homo sapiens, T-cell, primary human T-cells stimulated with IL-2, proliferation): 6.26
